Experimental data published in patent US5945440A, “Indolocarbazole imides and the use thereof” (priority 1992, dated 1999).
Blank lines part the entries; values can stand above or below the molecule they belong to.

What was measured:
[1] = system: human tumour cells; assay: colony test, human tumour cells in soft agar (tumour types in general); assay type: cell-based; conditions: certain tumour types
Description: (§1) For this test, human tumour cells are kept as solid tumour by passage on the nude mouse. For the test, an individual cell suspension is prepared and the cells then plated out in dishes containing soft agar. Under these conditions, the tumour cells multiply and form colonies.

[2] = target: T1, MLC kinase (myosin light-chain kinase) (Gallus gallus, UniProt P11799); assay: inhibition of MLC kinase, in vitro enzyme test (32P phosphate incorporation); assay type: biochemical, chicken (stomach); conditions: for ratio of IC50 C-kinase/IC50 MLC-kinase: selectivity factor calculated from the IC50 values; for IC50: 1 nM MLC kinase, 250 μM ATP, pH 7.2, 20 minutes at 30° C., read-out: inhibition of the protein kinases, MLC-kinase IC50
T1 construct: MLC kinase was purified from chicken stomach; from tissue; host or cells: chicken stomach (gizzard smooth muscle)
T1 sequence (P11799 935-1906): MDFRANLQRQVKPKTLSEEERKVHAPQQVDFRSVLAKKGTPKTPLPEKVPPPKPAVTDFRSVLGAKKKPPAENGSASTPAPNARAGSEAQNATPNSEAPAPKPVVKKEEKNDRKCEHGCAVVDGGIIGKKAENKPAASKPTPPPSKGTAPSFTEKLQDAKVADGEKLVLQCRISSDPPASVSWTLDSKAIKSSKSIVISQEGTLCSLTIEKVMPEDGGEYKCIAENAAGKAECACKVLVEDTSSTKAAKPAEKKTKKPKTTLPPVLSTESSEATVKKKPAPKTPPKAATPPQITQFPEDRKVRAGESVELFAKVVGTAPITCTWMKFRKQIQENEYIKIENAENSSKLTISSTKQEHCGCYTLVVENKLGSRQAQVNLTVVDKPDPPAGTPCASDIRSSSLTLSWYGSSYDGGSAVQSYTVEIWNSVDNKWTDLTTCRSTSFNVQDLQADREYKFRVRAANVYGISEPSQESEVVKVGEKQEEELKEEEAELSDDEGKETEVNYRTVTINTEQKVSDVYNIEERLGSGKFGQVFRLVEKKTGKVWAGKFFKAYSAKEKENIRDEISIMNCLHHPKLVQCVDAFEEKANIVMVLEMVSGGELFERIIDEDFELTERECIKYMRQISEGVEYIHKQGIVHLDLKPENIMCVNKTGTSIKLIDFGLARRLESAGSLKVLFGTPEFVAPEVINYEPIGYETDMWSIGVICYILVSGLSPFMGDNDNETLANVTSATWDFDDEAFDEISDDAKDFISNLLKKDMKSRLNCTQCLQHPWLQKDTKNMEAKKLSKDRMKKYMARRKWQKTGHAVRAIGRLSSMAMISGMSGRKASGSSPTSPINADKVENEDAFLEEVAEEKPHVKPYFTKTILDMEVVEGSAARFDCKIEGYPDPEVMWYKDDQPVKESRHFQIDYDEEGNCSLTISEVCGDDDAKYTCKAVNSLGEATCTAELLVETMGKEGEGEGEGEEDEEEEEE

[3] = target: protein kinase C; assay: inhibition of protein kinase C, enzyme test; assay type: biochemical; conditions: for IC50: read-out: inhibition of the protein kinases, C-kinase IC50
Description: In order to ascertain whether it is a question of a selective inhibition of MLC kinase, the compounds were also investigated in other enzyme tests for protein kinase, including tests for protein kinase C. The results from the PKC test are also given in the following Table I. Furthermore, the Table contains selectivity factors which were calculated by the determination of the ratios of the IC50 values.

[4] = literature / other filings; cited from earlier work
[5] = system: HIV; assay: phorbol ester-induced HIV reactivation, HIV-induced syncytia formation with indicator cell; assay type: cell-based; conditions: Human immunodeficiency virus 1; U1 cells, PMA stimulation; average value; n = 2; read-out: inhibition of the HIV production IC50, syncytia formation
Description: (§2) In the case of the establishment of this hypothesis, use was made of the promonocytic cell line U1.
(§3) Without stimulation, no formation of HIV can be measured in these cells but, after 15 minutes stimulation with the phorbol ester PMA, it results in a massive production of HIV.
(§4) Some of the PKC inhibitors according to the present invention were investigated in this model. As a measure for the HIV production, either with the help of an ELISA test there was determined the viral protein p24 or with the help of an indicator cell, there was measured the HIV-induced formation of syncytia (giant cells produced by the fusion of individual cells).

[6] = system: HIV; assay: HIV production in PMA-stimulated promonocytic U1 cells (both methods); assay type: cell-based; conditions: for anti-HIV action, in words: both test methods
Description: as §2, §3, §4

[7] = system: promonocytic cell line U1; assay: control experiments for cytotoxic action in the HIV model; assay type: cell-based
[8] = system: HIV; assay: phorbol ester-induced HIV reactivation, viral protein p24 by ELISA; assay type: cell-based; conditions: Human immunodeficiency virus 1; U1 cells, PMA stimulation; average value ± SD; n = 3; read-out: inhibition of the HIV production IC50, p24 expression
Description: as §2, §3, §4

[9] = system: human tumour cells, ovarian 3; assay: colony formation of human tumour cells: ovarian 3; assay type: cell-based
Description: as §1

[10] = system: human tumour cells, melanoma 1; assay: colony formation of human tumour cells: melanoma 1; assay type: cell-based
Description: as §1

[11] = system: human tumour cells, lung (small cell 1); assay: colony formation of human tumour cells: lung (small cell 1); assay type: cell-based
Description: as §1

[12] = system: human tumour cells, melanoma 2; assay: colony formation of human tumour cells: melanoma 2; assay type: cell-based
Description: as §1

[13] = system: human tumour cells, ovarian 2; assay: colony formation of human tumour cells: ovarian 2; assay type: cell-based
Description: as §1

[14] = system: human tumour cells, prostata 1; assay: colony formation of human tumour cells: prostata 1; assay type: cell-based
Description: as §1

[15] = system: human tumour cells, colorectal 1; assay: colony formation of human tumour cells: colorectal 1; assay type: cell-based
Description: as §1

[16] = system: human tumour cells, melanoma 3; assay: colony formation of human tumour cells: melanoma 3; assay type: cell-based
Description: as §1

[17] = system: human tumour cells, lung (large cell); assay: colony formation of human tumour cells: lung (large cell); assay type: cell-based
Description: as §1

[18] = system: human tumour cells, gastric 2; assay: colony formation of human tumour cells: gastric 2; assay type: cell-based
Description: as §1

[19] = system: human tumour cells, colon; assay: colony formation of human tumour cells: colon; assay type: cell-based
Description: as §1

[20] = system: human tumour cells, gastric 1; assay: colony formation of human tumour cells: gastric 1; assay type: cell-based
Description: as §1

[21] = system: human tumour cells, ovarian 1; assay: colony formation of human tumour cells: ovarian 1; assay type: cell-based
Description: as §1

[22] = system: human tumour cells, pancreas 1; assay: colony formation of human tumour cells: pancreas 1; assay type: cell-based
Description: as §1

[23] = system: human tumour cells; conditions: general statement on the colony test; cited from earlier work
[24] = system: protein kinases; conditions: Bio/Technology, 1990, 8, 132-135; cited from earlier work

- IC50 [5]: 29 nM
- IC50 [9]: < 100 nM
- IC50 [8]: 36 ± 15 nM
- IC50 [2]: 6.1 nM
- ratio of IC50 C-kinase/IC50 MLC-kinase [2]: 2.3
- IC50 [10]: 120 nM
- IC50 [11]: < 100 nM
- IC50 [12]: < 100 nM
- IC50 [13]: 2600 nM
- IC50 [14]: 200 nM
- IC50 [15]: 6000 nM
- IC50 [16]: 210 nM
- IC50 [17]: < 100 nM
- IC50 [3]: 14 nM
- IC50 [18]: < 100 nM
- IC50 [19]: 1700 nM
- IC50 [20]: 1200 nM
- IC50 [21]: 200 nM
- IC50 [22]: 1500 nM
Structure (SMILES): CN(C)CCCn1c2ccc(O)cc2c2c3c(c4c5cc(O)ccc5[nH]c4c21)C(=O)NC3=O [Example 2c]
- inhibition of tumour cell growth, in words [1]: the growth of the tumour cells can be inhibited depending upon the concentration
- anti-HIV action, in words [6]: an anti-HIV action could be demonstrated
- inhibition at 10 µM ([9]; 10^-5 M): 99%
- inhibition at 1 µM ([9]; 10^-6 M): 94%
- inhibition at 0.1 µM ([9]; 10^-7 M): 74%
- cytotoxic action as cause of the anti-HIV action, in words [7]: the anti-HIV action did not come about due to a cytotoxic action
- inhibition at 10 µM ([10]; 10^-5 M): 89%
- inhibition at 1 µM ([10]; 10^-6 M): 81%
- inhibition at 0.1 µM ([10]; 10^-7 M): 48%
- inhibition at 10 µM ([11]; 10^-5 M): 97%
- inhibition at 1 µM ([11]; 10^-6 M): 97%
- inhibition at 0.1 µM ([11]; 10^-7 M): 82%
- inhibition at 10 µM ([12]; 10^-5 M): 97%
- inhibition at 1 µM ([12]; 10^-6 M): 99%
- inhibition at 0.1 µM ([12]; 10^-7 M): 90%
- inhibition at 10 µM ([13]; 10^-5 M): 75%
- inhibition at 1 µM ([13]; 10^-6 M): 33%
- inhibition at 0.1 µM ([13]; 10^-7 M): 5%
- inhibition at 10 µM ([14]; 10^-5 M): 98%
- inhibition at 1 µM ([14]; 10^-6 M): 99%
- inhibition at 0.1 µM ([14]; 10^-7 M): 29%
- inhibition at 10 µM ([15]; 10^-5 M): 62%
- inhibition at 1 µM ([15]; 10^-6 M): 8%
- inhibition at 0.1 µM ([15]; 10^-7 M): 0%
- inhibition at 10 µM ([16]; 10^-5 M): 73%
- inhibition at 1 µM ([16]; 10^-6 M): 76%
- inhibition at 0.1 µM ([16]; 10^-7 M): 38%
- inhibition at 10 µM ([17]; 10^-5 M): 100%
- inhibition at 1 µM ([17]; 10^-6 M): 100%
- inhibition at 0.1 µM ([17]; 10^-7 M): 97%
- inhibition at 10 µM ([18]; 10^-5 M): 77%
- inhibition at 1 µM ([18]; 10^-6 M): 66%
- inhibition at 0.1 µM ([18]; 10^-7 M): 65%
- inhibition at 10 µM ([19]; 10^-5 M): 94%
- inhibition at 1 µM ([19]; 10^-6 M): 37%
- inhibition at 0.1 µM ([19]; 10^-7 M): 8%
- inhibition at 10 µM ([20]; 10^-5 M): 99%
- inhibition at 1 µM ([20]; 10^-6 M): 47%
- inhibition at 0.1 µM ([20]; 10^-7 M): 29%
- inhibition at 10 µM ([21]; 10^-5 M): 96%
- inhibition at 1 µM ([21]; 10^-6 M): 75%
- inhibition at 0.1 µM ([21]; 10^-7 M): 40%
- inhibition at 10 µM ([22]; 10^-5 M): 83%
- inhibition at 1 µM ([22]; 10^-6 M): 44%
- inhibition at 0.1 µM ([22]; 10^-7 M): 38%

- IC50 [2]: 110 nM
- ratio of IC50 C-kinase/IC50 MLC-kinase [2]: 0.4
- IC50 [3]: 42 nM
Structure (SMILES): CC(C)N(CCCn1c2ccccc2c2c3c(c4c5ccccc5[nH]c4c21)C(=O)NC3=O)C(C)C [Example 7g, 12-(3-diisopropylaminopropyl)-6,7,12,13-tetrahydro-5,7-dioxo-5H-indolo[2,3-a]pyrrolo[3,4-c]carbazole]
- inhibition of tumour cell growth, in words [1]: the growth of the tumour cells can be inhibited depending upon the concentration

Continued, molecule first:

Structure (SMILES): CN(C)CC(O)Cn1c2ccccc2c2c3c(c4c5ccccc5n(C)c4c21)C(=O)NC3=O (racemic) [Example 10, (±)-12-(3-Dimethylamino-2-hydroxy-1-propyl)-6,7,12,13-tetrahydro-13-methyl-5,7-dioxo-5H-indolo[2,3-a]pyrrolo-[3,4-c]carbazole]
- inhibition of tumour cell growth, in words [1]: the growth of the tumour cells can be inhibited depending upon the concentration
- ratio of IC50 C-kinase/IC50 MLC-kinase [2]: 0.2
- IC50 [3]: 21 nM

Structure (SMILES): O=C1NC(=O)c2c1c1c3cccc(O)c3[nH]c1c1[nH]c3c(O)cccc3c21 [BE-13193C]
- anti-tumour action, in words [4]: antitumour action

Structure (SMILES): COc1ccc2c(c1)c1c3c(c4c5ccccc5n(C)c4c1n2CCC#N)C(=O)NC3=O [Example 1, 13-(2-Cyanoethyl)-6,7,12,13-tetrahydro-3-methoxy-12-methyl-5,7-dioxo-5H-indolo[2,3-a]pyrrolo[3,4-c]-carbazole]
- IC50 [5]: 28 nM
- anti-HIV action, in words [6]: an anti-HIV action could be demonstrated
- cytotoxic action as cause of the anti-HIV action, in words [7]: the anti-HIV action did not come about due to a cytotoxic action
- IC50 [8]: 118 ± 98 nM
- IC50 [2]: 200 nM
- ratio of IC50 C-kinase/IC50 MLC-kinase [2]: 0.008
- protein kinase C inhibition, in words ([3]; potency and selectivity vs MLC kinase): potent and selective protein kinase C inhibitor
- IC50 [3]: 1.5 nM

Structure (SMILES): CC1CNCCN1S(=O)(=O)c1cccc2cnccc12 (stereo not drawn) [Example H-7, reference compound]
- suppression of HIV production, in words ([6]; 1 hour before PMA stimulation and 48 hours after): the production of HIV can be completely suppressed

Structure (SMILES): COc1cccc2c1C(=O)c1c(O)c3c(c(O)c1C2=O)C[C@@](O)(C(=O)CO)C[C@@H]3O[C@H]1C[C@H](N)[C@H](O)[C@H](C)O1 [adriamycin]
- prevention of colony formation, in words [23]: able to prevent this colony formation

Structure (SMILES): CO[C@H]1[C@H](O)[C@@H](O)[C@H](n2c3c(Cl)cccc3c3c4c(c5c6cccc(Cl)c6[nH]c5c32)C(=O)NC4=O)O[C@@H]1CO [rebeccamycin]
- inhibition of protein kinases, in words [24]: do not inhibit protein kinases
- anti-tumour action, in words [4]: anti-tumour action
